In ChEMBL document CHEMBL1201861, “Genomics of Drug Sensitity in Cancer screening data, Wellcome Trust Sanger Institute”:

How the values were obtained:
Assay in all cases: cells
[1] = test system: COR-L105; format: functional, cell-based; settings: Homo sapiens;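 further: cell growth inhibition determined with a viability assay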
Description: SANGER: Inhibition of human COR-L105 cell growth in a cell viability assay.

[2] = test system: Ca9-22; format: functional, cell-based; settings: Homo sapiens;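 further: growth inhibition of Ca9-22 cells, read out with a cell viability assay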
Description: SANGER: Inhibition of human Ca9-22 cell growth in a cell viability assay.

[3] = test system: DMS-273; format: functional, cell-based; settings: Homo sapiens
Description: SANGER: Inhibition of human DMS-273 cell growth in a cell viability assay.

[4] = test system: EFO-21; format: functional, cell-based; settings: Homo sapiens;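 further: growth inhibition of EFO-21 cells measured with a viability assay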
Description: SANGER: Inhibition of human EFO-21 cell growth in a cell viability assay.

[5] = test system: FTC-133; format: functional, cell-based; settings: Homo sapiens
[6] = test system: GAMG; format: functional, cell-based; settings: Homo sapiens;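 further: cell growth inhibition measured by a viability assay in the GAMG human cell line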
Description: SANGER: Inhibition of human GAMG cell growth in a cell viability assay.

[7] = test system: HCC1419; format: functional, cell-based; settings: Homo sapiens;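 further: growth inhibition of human HCC1419 cells, read out as cell viability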
Description: SANGER: Inhibition of human HCC1419 cell growth in a cell viability assay.

[8] = test system: HCC1569; format: functional, cell-based; settings: Homo sapiens;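 further: growth inhibition of human HCC1569 cells, read out with a cell viability assay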
Description: SANGER: Inhibition of human HCC1569 cell growth in a cell viability assay.

[9] = test system: HLE; format: functional, cell-based; settings: Homo sapiens;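 further: growth inhibition of human HLE cells, read out by a cell viability assay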
Description: SANGER: Inhibition of human HLE cell growth in a cell viability assay.

[10] = test system: HT-1080; format: functional, cell-based; settings: Homo sapiens
Description: SANGER: Inhibition of human HT-1080 cell growth in a cell viability assay.

[11] = test system: HuCCT-1; format: functional, cell-based, HuCCT1; settings: Homo sapiens;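 further: growth inhibition of HuCCT-1 cells, read out by a cell viability assay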
Description: SANGER: Inhibition of human HuCCT1 cell growth in a cell viability assay.

[12] = test system: KYSE-150 cell line; format: functional, cell-based; settings: Homo sapiens;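 further: growth inhibition of human KYSE-150 cells, read out with a cell viability assay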
Description: SANGER: Inhibition of human KYSE-150 cell growth in a cell viability assay.

[13] = test system: MC-IXC; format: functional, cell-based; settings: Homo sapiens;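 further: growth inhibition of MC-IXC cells, read out with a cell viability assay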
Description: SANGER: Inhibition of human MC-IXC cell growth in a cell viability assay.

[14] = test system: MDA-MB-361; format: functional, cell-based; settings: Homo sapiens
[15] = test system: NCI-H1563; format: functional, cell-based; settings: Homo sapiens;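 further: growth inhibition of human NCI-H1563 cells, read out with a cell viability assay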
Description: SANGER: Inhibition of human NCI-H1563 cell growth in a cell viability assay.

[16] = test system: NCI-H1573; format: functional, cell-based; settings: Homo sapiens;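 further: growth inhibition of NCI-H1573 cells, read out with a cell viability assay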
Description: SANGER: Inhibition of human NCI-H1573 cell growth in a cell viability assay.

[17] = test system: NCI-H2122; format: functional, cell-based; settings: Homo sapiens;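 further: growth inhibition of the cells, read out with a cell viability assay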
Description: SANGER: Inhibition of human NCI-H2122 cell growth in a cell viability assay.

[18] = test system: NCI-H2452; format: functional, cell-based; settings: Homo sapiens;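 further: growth inhibition of NCI-H2452 cells, read out with a cell viability assay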
Description: SANGER: Inhibition of human NCI-H2452 cell growth in a cell viability assay.

[19] = test system: NCI-H28; format: functional, cell-based; settings: Homo sapiens;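 further: growth inhibition of human NCI-H28 cells, read out as cell viability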
Description: SANGER: Inhibition of human NCI-H28 cell growth in a cell viability assay.

[20] = test system: NCI-H661; format: functional, cell-based; settings: Homo sapiens;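 further: cell viability assay read-out, IC50 being the concentration that inhibits growth of the cells by half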
Description: SANGER: Inhibition of human NCI-H661 cell growth in a cell viability assay.

[21] = test system: PA-1; format: functional, cell-based; settings: Homo sapiens;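 further: IC50 for suppression of PA-1 cell proliferation, determined with a cell viability read-out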
Description: SANGER: Inhibition of human PA-1 cell growth in a cell viability assay.

[22] = test system: Panc1005; format: functional, cell-based; settings: Homo sapiens;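 further: growth inhibition of human PANC-10-05 cells, measured by a cell viability assay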
Description: SANGER: Inhibition of human PANC-10-05 cell growth in a cell viability assay.

[23] = test system: SAS; format: functional, cell-based; settings: Homo sapiens;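 further: growth inhibition of SAS cells, read out with a cell viability assay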
Description: SANGER: Inhibition of human SAS cell growth in a cell viability assay.

[24] = test system: SBC-5; format: functional, cell-based; settings: Homo sapiens;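 further: cell viability assay read-out, IC50 is the concentration that inhibits growth of the cells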
Description: SANGER: Inhibition of human SBC-5 cell growth in a cell viability assay.

[25] = test system: SF-295; format: functional, cell-based; settings: Homo sapiens;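 further: growth inhibition of SF-295 cells, read out with a cell viability assay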
Description: SANGER: Inhibition of human SF295 cell growth in a cell viability assay.

[26] = test system: SW1710; format: functional, cell-based; settings: Homo sapiens;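 further: growth inhibition of SW1710 cells, determined with a cell viability assay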
Description: SANGER: Inhibition of human SW1710 cell growth in a cell viability assay.

[27] = test system: SW-620; format: functional, cell-based; settings: Homo sapiens;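 further: growth inhibition of human SW-620 cells, measured by a cell viability assay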
Description: SANGER: Inhibition of human SW620 cell growth in a cell viability assay.

[28] = test system: SW756; format: functional, cell-based; settings: Homo sapiens;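 further: growth inhibition of human SW756 cells, read out with a cell viability assay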
Description: SANGER: Inhibition of human SW756 cell growth in a cell viability assay.

[29] = test system: T-24; format: functional, cell-based; settings: Homo sapiens;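 further: growth inhibition of T-24 cells, read out with a cell viability assay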
Description: SANGER: Inhibition of human T-24 cell growth in a cell viability assay.

[30] = test system: T47D; format: functional, cell-based; settings: Homo sapiens;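 further: growth inhibition of human T47D cells, measured with a cell viability assay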
Description: SANGER: Inhibition of human T47D cell growth in a cell viability assay.

[31] = test system: 5637; format: functional, cell-based; settings: Homo sapiens
Description: SANGER: Inhibition of human 5637 cell growth in a cell viability assay.

[32] = test system: 639-V; format: functional, cell-based; settings: Homo sapiens;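 further: growth inhibition of 639-V cells, read out with a cell viability assay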
Description: SANGER: Inhibition of human 639-V cell growth in a cell viability assay.

[33] = test system: 786-0; format: functional, cell-based; settings: Homo sapiens
Description: SANGER: Inhibition of human 786-0 cell growth in a cell viability assay.

[34] = test system: 8505C; format: functional, cell-based; settings: Homo sapiens
Description: SANGER: Inhibition of human 8505C cell growth in a cell viability assay.

[35] = test system: BFTC-905; format: functional, cell-based; settings: Homo sapiens
Description: SANGER: Inhibition of human BFTC-905 cell growth in a cell viability assay.

[36] = test system: C3A; format: functional, cell-based; settings: Homo sapiens;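 further: growth inhibition of C3A human cells, quantified with a cell viability readout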
Description: SANGER: Inhibition of human C3A cell growth in a cell viability assay.

[37] = test system: CAL-12T; format: functional, cell-based; settings: Homo sapiens;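 further: growth inhibition of human CAL-12T cells, read out with a cell viability assay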
Description: SANGER: Inhibition of human CAL-12T cell growth in a cell viability assay.

[38] = test system: CAL-85-1; format: functional, cell-based; settings: Homo sapiens;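 further: growth inhibition of human CAL-85-1 cells, read out with a cell viability assay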
Description: SANGER: Inhibition of human CAL-85-1 cell growth in a cell viability assay.

[39] = test system: U-251; format: functional, cell-based; settings: Homo sapiens;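 further: growth inhibition of human U-251 cells, read out through a cell viability assay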
Description: SANGER: Inhibition of human U251 cell growth in a cell viability assay.

[40] = test system: UACC-62; format: functional, cell-based; settings: Homo sapiens;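 further: growth inhibition of human UACC-62 cells, read out by a cell viability assay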
Description: SANGER: Inhibition of human UACC-62 cell growth in a cell viability assay.

[41] = test system: VM-CUB-1; format: functional, cell-based; settings: Homo sapiens;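 further: cell viability assay measuring growth inhibition of the human VM-CUB-1 cell line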
Description: SANGER: Inhibition of human VM-CUB-1 cell growth in a cell viability assay.

[42] = test system: CAMA-1; format: functional, cell-based; settings: Homo sapiens;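 further: growth inhibition of CAMA-1 cells, read out with a cell viability assay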
Description: SANGER: Inhibition of human CAMA-1 cell growth in a cell viability assay.

[43] = test system: D-336MG; format: functional, cell-based, Homo sapiens; settings: Homo sapiens, D-336MG
Description: SANGER: Inhibition of human D-336MG cell growth in a cell viability assay.

SMILES: NC1(c2ccc(-c3nc4ccn5c(=O)[nH]nc5c4cc3-c3ccccc3)cc2)CCC1 [MK-2206]
- IC50 [1]: 1800 nM
- IC50 [2]: > 4000 nM
- IC50 [3]: 1520 nM
- IC50 [4]: > 4000 nM
- IC50 [5]: > 4000 nM
- IC50 [6]: 2240 nM
- IC50 [7]: 489 nM
- IC50 [8]: > 4000 nM
- IC50 [9]: > 4000 nM
- IC50 [10]: > 4000 nM
- IC50 [11]: > 4000 nM
- IC50 [12]: > 4000 nM
- IC50 [13]: > 4000 nM
- IC50 [14]: 578 nM
- IC50 [15]: 482 nM
- IC50 [16]: > 4000 nM
- IC50 [17]: > 4000 nM
- IC50 [18]: > 4000 nM
- IC50 [19]: > 4000 nM
- IC50 [20]: > 4000 nM
- IC50 [21]: 1350 nM
- IC50 [22]: > 4000 nM
- IC50 [23]: > 4000 nM
- IC50 [24]: > 4000 nM
- IC50 [25]: > 4000 nM
- IC50 [26]: 3470 nM
- IC50 [27]: > 4000 nM
- IC50 [28]: > 4000 nM
- IC50 [29]: 2480 nM
- IC50 [30]: 282 nM
- IC50 [31]: > 4000 nM
- IC50 [32]: > 4000 nM
- IC50 [33]: > 4000 nM
- IC50 [34]: > 4000 nM
- IC50 [35]: > 4000 nM
- IC50 [36]: > 4000 nM
- IC50 [37]: > 4000 nM
- IC50 [38]: > 4000 nM
- IC50 [39]: > 4000 nM
- IC50 [40]: > 4000 nM
- IC50 [41]: 2390 nM
- IC50 [42]: > 4000 nM

SMILES: O=C(NCCCNc1nc(Nc2cccc(NC(=O)N3CCCC3)c2)ncc1I)c1cccs1 [BX-795]
- IC50 [1]: > 5000 nM
- IC50 [2]: 2130 nM
- IC50 [43]: 4300 nM
- IC50 [3]: > 5000 nM
- IC50 [4]: > 5000 nM
- IC50 [5]: 3020 nM
- IC50 [6]: 2830 nM
- IC50 [7]: > 5000 nM
- IC50 [8]: > 5000 nM
- IC50 [9]: > 5000 nM
- IC50 [10]: > 5000 nM
- IC50 [11]: > 5000 nM
- IC50 [12]: 2730 nM
- IC50 [13]: 2900 nM
- IC50 [14]: > 5000 nM
- IC50 [15]: > 5000 nM
- IC50 [16]: > 5000 nM
- IC50 [17]: > 5000 nM
- IC50 [18]: 4830 nM
- IC50 [19]: 2850 nM
- IC50 [20]: > 5000 nM
- IC50 [21]: 804 nM
- IC50 [22]: > 5000 nM
- IC50 [23]: > 5000 nM
- IC50 [24]: > 5000 nM
- IC50 [25]: 4180 nM
- IC50 [26]: 2290 nM
- IC50 [27]: > 5000 nM
- IC50 [28]: > 5000 nM
- IC50 [29]: > 5000 nM
- IC50 [30]: > 5000 nM
- IC50 [31]: > 5000 nM
- IC50 [32]: > 5000 nM
- IC50 [33]: > 5000 nM
- IC50 [34]: 3800 nM
- IC50 [35]: 1080 nM
- IC50 [36]: > 5000 nM
- IC50 [37]: 4790 nM
- IC50 [38]: > 5000 nM
- IC50 [39]: > 5000 nM
- IC50 [40]: > 5000 nM
- IC50 [41]: 2040 nM
- IC50 [42]: > 5000 nM

SMILES: O=C1NC(=O)c2c1c(-c1ccccc1Cl)cc1[nH]c3ccc(O)cc3c21
- IC50 [1]: > 2000 nM
- IC50 [2]: > 2000 nM
- IC50 [43]: > 2000 nM
- IC50 [3]: > 2000 nM
- IC50 [4]: > 2000 nM
- IC50 [5]: > 2000 nM
- IC50 [6]: > 2000 nM
- IC50 [7]: > 2000 nM
- IC50 [8]: > 2000 nM
- IC50 [9]: > 2000 nM
- IC50 [10]: 1200 nM
- IC50 [11]: > 2000 nM
- IC50 [12]: > 2000 nM
- IC50 [13]: > 2000 nM
- IC50 [14]: > 2000 nM
- IC50 [15]: > 2000 nM
- IC50 [16]: > 2000 nM
- IC50 [17]: > 2000 nM
- IC50 [18]: > 2000 nM
- IC50 [19]: > 2000 nM
- IC50 [20]: > 2000 nM
- IC50 [21]: > 2000 nM
- IC50 [22]: > 2000 nM
- IC50 [23]: > 2000 nM
- IC50 [24]: > 2000 nM
- IC50 [26]: > 2000 nM
- IC50 [27]: > 2000 nM
- IC50 [29]: > 2000 nM
- IC50 [30]: > 2000 nM
- IC50 [31]: > 2000 nM
- IC50 [32]: > 2000 nM
- IC50 [33]: > 2000 nM
- IC50 [35]: 1620 nM
- IC50 [36]: > 2000 nM
- IC50 [37]: > 2000 nM
- IC50 [38]: > 2000 nM
- IC50 [39]: > 2000 nM
- IC50 [40]: > 2000 nM
- IC50 [41]: > 2000 nM
- IC50 [42]: > 2000 nM
